Measured values published in the kinase profiling compilation of Christmann-Franck et al. (2016).

How the values were obtained:
Test in all cases: radiometric filter-binding kinase assay, Kinase HotSpot
Settings in all cases: compound 0.5 µM; ATP 10 µM
HIPK3 (human) = HIPK3 (human) (UniProt Q9H422)
PRKCB1 (human) = PRKCB1 (human) (UniProt P05771)
CSF1R (human) = CSF1R (human) (UniProt P07333)
PRKD3 (human) = PRKD3 (human) (UniProt O94806)
CLK3 (human) = CLK3 (human) (UniProt P49761)
SRC (human) = SRC (human) (UniProt P12931)
MAP3K14 (human) = MAP3K14 (human) (UniProt Q99558)
MAP3K11 (human) = MAP3K11 (human) (UniProt Q16584)
EPHB4 (human) = EPHB4 (human) (UniProt P54760)
MARK2 (human) = MARK2 (human) (UniProt Q7KZI7)
ALK (human) = ALK (human) (UniProt Q9UM73)
CDK7 CCNH MNAT1 (human) = CDK7 CCNH MNAT1 (human) (UniProt P50613+P51948+P51946)
NTRK3 (human) = NTRK3 (human) (UniProt Q16288)
GSK3B (human) = GSK3B (human) (UniProt P49841)
CDK9 CCNT1 (human) = CDK9 CCNT1 (human) (UniProt P50750+O60563)
CDK4 CCND1 (human) = CDK4 CCND1 (human) (UniProt P24385+P11802)
MAPK8 (human) = MAPK8 (human) (UniProt P45983)
CAMK2A (human) = CAMK2A (human) (UniProt Q9UQM7)
RPS6KA4 KD2 (human) = RPS6KA4 KD2 (human) (UniProt O75676)
AKT3 (human) = AKT3 (human) (UniProt Q9Y243)
TAOK2 (human) = TAOK2 (human) (UniProt Q9UL54)
ROCK1 (human) = ROCK1 (human) (UniProt Q13464)
ROS1 (human) = ROS1 (human) (UniProt P08922)
EPHB2 (human) = EPHB2 (human) (UniProt P29323)
MET (human) = MET (human) (UniProt P08581)
VRK1 (human) = VRK1 (human) (UniProt Q99986)
NEK4 (human) = NEK4 (human) (UniProt P51957)
GSG2 (human) = GSG2 (human) (UniProt Q8TF76)
NEK9 (human) = NEK9 (human) (UniProt Q8TD19)
MLTK (human) = MLTK (human) (UniProt Q9NYL2)
DAPK1 (human) = DAPK1 (human) (UniProt P53355)
MAPK1 (human) = MAPK1 (human) (UniProt P28482)
MUSK (human) = MUSK (human) (UniProt O15146)
TLK2 (human) = TLK2 (human) (UniProt Q86UE8)
ABL2 (human) = ABL2 (human) (UniProt P42684)
MAP3K7 TAB1 (human) = MAP3K7 TAB1 (human) (UniProt O43318+Q15750)
RIPK2 (human) = RIPK2 (human) (UniProt O43353)
CDK5 CDK5R1 p35 (human) = CDK5 CDK5R1 p35 (human) (UniProt Q00535+Q15078)
EPHA7 (human) = EPHA7 (human) (UniProt Q15375)
RPS6KA5 KD2 (human) = RPS6KA5 KD2 (human) (UniProt O75582)
MINK1 (human) = MINK1 (human) (UniProt Q8N4C8)

Sequence of ALK (human) (Q9UM73 whole entry, looked up): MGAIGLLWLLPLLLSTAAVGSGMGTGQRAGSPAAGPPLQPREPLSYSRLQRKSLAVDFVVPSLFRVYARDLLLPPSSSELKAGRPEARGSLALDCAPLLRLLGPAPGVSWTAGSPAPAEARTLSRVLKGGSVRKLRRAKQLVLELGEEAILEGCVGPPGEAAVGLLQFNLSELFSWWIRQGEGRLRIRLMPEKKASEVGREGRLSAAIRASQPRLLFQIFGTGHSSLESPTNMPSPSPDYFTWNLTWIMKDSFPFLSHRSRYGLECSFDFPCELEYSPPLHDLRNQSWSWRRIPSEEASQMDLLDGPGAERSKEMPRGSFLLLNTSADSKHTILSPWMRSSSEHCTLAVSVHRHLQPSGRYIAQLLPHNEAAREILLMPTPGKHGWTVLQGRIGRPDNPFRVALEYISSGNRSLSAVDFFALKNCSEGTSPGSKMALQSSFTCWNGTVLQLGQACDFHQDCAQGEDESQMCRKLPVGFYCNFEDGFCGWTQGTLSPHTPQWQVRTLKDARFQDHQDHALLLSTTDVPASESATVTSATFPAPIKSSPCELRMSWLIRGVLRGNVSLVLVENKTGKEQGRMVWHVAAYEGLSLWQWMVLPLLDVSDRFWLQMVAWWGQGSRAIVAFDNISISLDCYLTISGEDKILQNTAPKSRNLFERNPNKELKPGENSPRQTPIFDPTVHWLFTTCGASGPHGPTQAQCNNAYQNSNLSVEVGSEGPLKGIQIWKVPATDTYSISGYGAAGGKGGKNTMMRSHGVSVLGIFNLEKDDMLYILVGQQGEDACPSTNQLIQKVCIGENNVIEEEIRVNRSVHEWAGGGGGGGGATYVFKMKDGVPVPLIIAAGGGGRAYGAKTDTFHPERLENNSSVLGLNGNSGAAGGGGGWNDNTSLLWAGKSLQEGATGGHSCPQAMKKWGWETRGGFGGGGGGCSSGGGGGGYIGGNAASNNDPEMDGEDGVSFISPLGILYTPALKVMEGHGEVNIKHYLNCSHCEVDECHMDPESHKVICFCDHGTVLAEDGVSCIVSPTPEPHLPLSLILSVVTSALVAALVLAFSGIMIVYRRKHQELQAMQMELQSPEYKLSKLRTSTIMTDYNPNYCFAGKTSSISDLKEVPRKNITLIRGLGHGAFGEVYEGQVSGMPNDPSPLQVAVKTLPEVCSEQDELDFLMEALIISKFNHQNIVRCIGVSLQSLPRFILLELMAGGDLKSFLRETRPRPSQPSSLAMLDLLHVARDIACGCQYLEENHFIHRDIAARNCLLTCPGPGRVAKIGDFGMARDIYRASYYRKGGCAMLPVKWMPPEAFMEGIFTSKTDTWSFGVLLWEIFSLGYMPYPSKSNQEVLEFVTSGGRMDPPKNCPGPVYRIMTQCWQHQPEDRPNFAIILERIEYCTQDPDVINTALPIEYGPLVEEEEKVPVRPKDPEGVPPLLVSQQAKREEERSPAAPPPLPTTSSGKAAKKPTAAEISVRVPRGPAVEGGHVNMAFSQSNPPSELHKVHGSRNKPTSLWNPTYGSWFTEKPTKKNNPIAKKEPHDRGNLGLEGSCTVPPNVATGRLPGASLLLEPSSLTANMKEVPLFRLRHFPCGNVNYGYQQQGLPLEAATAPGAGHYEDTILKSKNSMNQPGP
Sequence of HIPK3 (human) (Q9H422 whole entry, looked up): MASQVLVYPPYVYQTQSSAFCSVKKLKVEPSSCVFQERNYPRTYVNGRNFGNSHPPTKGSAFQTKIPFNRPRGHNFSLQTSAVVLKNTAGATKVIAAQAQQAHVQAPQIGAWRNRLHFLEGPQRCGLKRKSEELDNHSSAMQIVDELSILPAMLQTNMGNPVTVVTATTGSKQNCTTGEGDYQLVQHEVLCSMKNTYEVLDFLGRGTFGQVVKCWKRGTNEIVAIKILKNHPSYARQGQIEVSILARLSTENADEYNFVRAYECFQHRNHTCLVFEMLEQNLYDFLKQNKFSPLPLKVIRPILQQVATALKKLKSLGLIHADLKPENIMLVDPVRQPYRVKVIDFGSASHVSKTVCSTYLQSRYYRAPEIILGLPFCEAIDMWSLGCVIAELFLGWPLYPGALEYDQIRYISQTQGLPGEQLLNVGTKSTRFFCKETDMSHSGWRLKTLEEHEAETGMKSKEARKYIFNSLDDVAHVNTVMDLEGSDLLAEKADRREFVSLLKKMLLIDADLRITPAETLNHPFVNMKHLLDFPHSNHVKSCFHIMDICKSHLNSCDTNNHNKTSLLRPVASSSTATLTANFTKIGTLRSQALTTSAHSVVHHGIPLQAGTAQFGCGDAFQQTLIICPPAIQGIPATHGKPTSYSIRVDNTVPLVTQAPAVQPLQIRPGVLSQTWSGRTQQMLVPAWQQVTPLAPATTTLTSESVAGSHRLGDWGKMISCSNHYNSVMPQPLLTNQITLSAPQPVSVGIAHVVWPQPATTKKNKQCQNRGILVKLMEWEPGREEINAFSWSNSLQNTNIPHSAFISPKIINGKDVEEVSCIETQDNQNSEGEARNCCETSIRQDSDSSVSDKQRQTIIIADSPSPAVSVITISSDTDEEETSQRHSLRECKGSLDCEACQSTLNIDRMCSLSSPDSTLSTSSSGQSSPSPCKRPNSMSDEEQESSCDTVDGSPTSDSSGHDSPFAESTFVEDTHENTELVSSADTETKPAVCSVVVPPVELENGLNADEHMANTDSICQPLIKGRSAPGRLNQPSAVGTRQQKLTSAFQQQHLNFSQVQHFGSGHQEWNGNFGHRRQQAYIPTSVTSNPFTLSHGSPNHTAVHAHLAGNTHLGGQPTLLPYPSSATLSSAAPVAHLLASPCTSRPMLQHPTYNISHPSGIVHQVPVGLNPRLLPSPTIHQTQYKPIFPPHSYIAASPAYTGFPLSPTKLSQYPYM
Sequence of NEK9 (human) (Q8TD19 whole entry, looked up): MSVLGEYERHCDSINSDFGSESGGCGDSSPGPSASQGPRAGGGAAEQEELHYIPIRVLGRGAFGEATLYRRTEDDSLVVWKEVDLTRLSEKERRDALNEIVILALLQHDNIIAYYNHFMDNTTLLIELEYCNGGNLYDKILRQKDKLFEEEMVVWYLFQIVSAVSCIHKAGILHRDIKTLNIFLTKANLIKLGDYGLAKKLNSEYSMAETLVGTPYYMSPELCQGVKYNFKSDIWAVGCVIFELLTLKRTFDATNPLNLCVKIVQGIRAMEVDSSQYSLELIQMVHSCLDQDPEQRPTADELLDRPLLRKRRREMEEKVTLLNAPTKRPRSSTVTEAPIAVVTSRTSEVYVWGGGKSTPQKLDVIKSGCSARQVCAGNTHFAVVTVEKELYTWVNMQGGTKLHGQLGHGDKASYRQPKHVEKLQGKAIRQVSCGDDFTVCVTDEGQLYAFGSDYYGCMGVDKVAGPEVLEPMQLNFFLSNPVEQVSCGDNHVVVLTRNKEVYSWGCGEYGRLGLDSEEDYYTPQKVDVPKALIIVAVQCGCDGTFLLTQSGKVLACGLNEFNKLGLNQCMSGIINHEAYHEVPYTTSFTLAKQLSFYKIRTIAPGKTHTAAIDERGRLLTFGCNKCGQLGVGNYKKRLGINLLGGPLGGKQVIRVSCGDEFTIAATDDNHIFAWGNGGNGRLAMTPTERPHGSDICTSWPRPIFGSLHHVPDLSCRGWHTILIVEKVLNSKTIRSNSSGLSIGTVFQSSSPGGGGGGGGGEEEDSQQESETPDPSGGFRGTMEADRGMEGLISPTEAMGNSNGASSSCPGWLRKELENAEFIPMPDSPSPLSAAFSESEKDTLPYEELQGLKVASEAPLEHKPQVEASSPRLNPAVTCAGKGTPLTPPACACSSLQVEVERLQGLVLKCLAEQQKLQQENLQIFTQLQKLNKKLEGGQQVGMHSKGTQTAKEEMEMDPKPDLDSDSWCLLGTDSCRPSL
Sequence of MAPK8 (human) (P45983 whole entry, looked up): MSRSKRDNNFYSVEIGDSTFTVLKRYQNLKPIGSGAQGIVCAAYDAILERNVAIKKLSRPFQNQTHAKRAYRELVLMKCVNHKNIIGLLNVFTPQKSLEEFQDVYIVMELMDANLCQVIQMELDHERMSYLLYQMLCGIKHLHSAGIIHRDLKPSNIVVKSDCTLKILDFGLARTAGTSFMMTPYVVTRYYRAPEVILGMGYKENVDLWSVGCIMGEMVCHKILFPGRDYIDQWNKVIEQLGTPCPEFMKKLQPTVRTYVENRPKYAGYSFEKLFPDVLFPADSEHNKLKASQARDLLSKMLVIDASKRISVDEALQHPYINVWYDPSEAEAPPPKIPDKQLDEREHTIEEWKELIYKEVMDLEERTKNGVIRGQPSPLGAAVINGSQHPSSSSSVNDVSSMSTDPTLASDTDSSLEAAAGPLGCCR
Sequence of PRKCB1 (human) (P05771 whole entry, looked up): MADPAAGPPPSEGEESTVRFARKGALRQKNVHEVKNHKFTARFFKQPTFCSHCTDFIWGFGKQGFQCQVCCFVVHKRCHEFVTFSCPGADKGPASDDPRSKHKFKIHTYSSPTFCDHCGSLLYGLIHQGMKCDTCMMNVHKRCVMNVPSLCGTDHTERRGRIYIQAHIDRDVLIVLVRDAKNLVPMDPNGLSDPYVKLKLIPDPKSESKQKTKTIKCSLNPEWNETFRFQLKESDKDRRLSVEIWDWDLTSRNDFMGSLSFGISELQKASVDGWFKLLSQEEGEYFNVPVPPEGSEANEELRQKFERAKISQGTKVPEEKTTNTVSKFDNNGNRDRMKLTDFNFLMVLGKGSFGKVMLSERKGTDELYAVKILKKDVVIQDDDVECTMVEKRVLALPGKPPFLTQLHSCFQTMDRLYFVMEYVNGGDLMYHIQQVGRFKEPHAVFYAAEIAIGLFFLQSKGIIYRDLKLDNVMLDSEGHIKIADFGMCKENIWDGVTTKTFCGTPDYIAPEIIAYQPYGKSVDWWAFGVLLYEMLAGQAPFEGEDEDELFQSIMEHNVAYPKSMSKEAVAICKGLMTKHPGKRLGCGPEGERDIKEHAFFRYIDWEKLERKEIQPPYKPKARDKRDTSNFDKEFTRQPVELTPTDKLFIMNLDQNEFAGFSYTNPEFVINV

In the case of `CCC(=O)Nc1ccc2ncnc(Nc3cccc(Br)c3)c2c1`, the residual activity (HIPK3 (human)) is reported as 92.1%, the residual activity (PRKCB1 (human)) is reported as 99.2% and the residual activity (CSF1R (human)) is reported as 98.9%. It also gave a residual activity (PRKD3 (human)) of 85.9%, a residual activity (CLK3 (human)) of 99.3% and a residual activity (SRC (human)) of 93.6%. The residual activity (MAP3K14 (human)) was 116%, the residual activity (MAP3K11 (human)) was 97.1% and the residual activity (EPHB4 (human)) was 93.4%. The residual activity (MARK2 (human)) was 73.5%, the residual activity (ALK (human)) was 83.1% and the residual activity (CDK7 CCNH MNAT1 (human)) was 102%. For the same compound, the residual activity (NTRK3 (human)) was 95.8%, the residual activity (GSK3B (human)) was 91.2% and the residual activity (CDK9 CCNT1 (human)) was 93.7%. For the same compound, the residual activity (CDK4 CCND1 (human)) was 101%, the residual activity (MAPK8 (human)) was 73.7% and the residual activity (CAMK2A (human)) was 85.7%. The residual activity (RPS6KA4 KD2 (human)) was 106%, the residual activity (AKT3 (human)) was 94.4% and the residual activity (TAOK2 (human)) was 91.4%. For the same compound, the residual activity (ROCK1 (human)) was 99.5%, the residual activity (ROS1 (human)) was 97.5% and the residual activity (EPHB2 (human)) was 95.1%. For the same compound, the residual activity (MET (human)) was 103%, the residual activity (VRK1 (human)) was 94.4% and the residual activity (NEK4 (human)) was 94.7%. It also gave a residual activity (GSG2 (human)) of 95.2%, a residual activity (NEK9 (human)) of 105% and a residual activity (MLTK (human)) of 96%. The residual activity (DAPK1 (human)) was 99.4%, the residual activity (MAPK1 (human)) was 77.7% and the residual activity (MUSK (human)) was 87.8%. For the same compound, the residual activity (TLK2 (human)) was 104%, the residual activity (ABL2 (human)) was 96.6% and the residual activity (MAP3K7 TAB1 (human)) was 94%. It also gave a residual activity (RIPK2 (human)) of 71.4%, a residual activity (CDK5 CDK5R1 p35 (human)) of 100% and a residual activity (EPHA7 (human)) of 102%. For the same compound, the residual activity (RPS6KA5 KD2 (human)) was 90% and the residual activity (MINK1 (human)) was 95.8%.
In the case of `CO[C@H]1CC2CC[C@@H](C)[C@@](O)(O2)C(=O)C(=O)N2CCCC[C@H]2C(=O)OC([C@H](C)C[C@@H]2CC[C@@H](O)[C@H](OC)C2)CC(=O)[C@H](C)/C=C(\C)[C@@H](O)[C@@H](OC)C(=O)[C@H](C)C[C@H](C)/C=C/C=C/C=C/1C` (some centres not stated), the residual activity (HIPK3 (human)) is reported as 107%, the residual activity (PRKCB1 (human)) is reported as 102% and the residual activity (CSF1R (human)) is reported as 101%. The residual activity (PRKD3 (human)) was 95.6%, the residual activity (CLK3 (human)) was 94.4% and the residual activity (SRC (human)) was 96%. For the same compound, the residual activity (MAP3K14 (human)) was 105%, the residual activity (MAP3K11 (human)) was 98.5% and the residual activity (EPHB4 (human)) was 89.5%. The residual activity (MARK2 (human)) was 104%, the residual activity (ALK (human)) was 115% and the residual activity (CDK7 CCNH MNAT1 (human)) was 98.2%. The residual activity (NTRK3 (human)) was 103%, the residual activity (GSK3B (human)) was 109% and the residual activity (CDK9 CCNT1 (human)) was 87%. For the same compound, the residual activity (CDK4 CCND1 (human)) was 115%, the residual activity (MAPK8 (human)) was 100% and the residual activity (CAMK2A (human)) was 105%. For the same compound, the residual activity (RPS6KA4 KD2 (human)) was 91.8%, the residual activity (AKT3 (human)) was 97.8% and the residual activity (TAOK2 (human)) was 97.6%. The residual activity (ROCK1 (human)) was 103%, the residual activity (ROS1 (human)) was 85% and the residual activity (EPHB2 (human)) was 114%. It also gave a residual activity (MET (human)) of 98.1%, a residual activity (VRK1 (human)) of 108% and a residual activity (NEK4 (human)) of 97.2%. For the same compound, the residual activity (GSG2 (human)) was 103%, the residual activity (NEK9 (human)) was 98.2% and the residual activity (MLTK (human)) was 103%. For the same compound, the residual activity (DAPK1 (human)) was 88.5%, the residual activity (MAPK1 (human)) was 101% and the residual activity (MUSK (human)) was 87.7%. For the same compound, the residual activity (TLK2 (human)) was 94.4%, the residual activity (ABL2 (human)) was 94.2% and the residual activity (MAP3K7 TAB1 (human)) was 95.2%. For the same compound, the residual activity (RIPK2 (human)) was 90.5%, the residual activity (CDK5 CDK5R1 p35 (human)) was 99.5% and the residual activity (EPHA7 (human)) was 89.7%. The residual activity (RPS6KA5 KD2 (human)) was 106% and the residual activity (MINK1 (human)) was 100%.
